{"source": "patent US20230036854A1", "about": "“HETEROCYCLIC SPIRO-COMPOUNDS AS AM2 RECEPTOR INHIBITORS” (THE UNIVERSITY OF SHEFFIELD, priority 2018, published 2023)"}
{"target": "T1, AM2 receptor (1321N1 cells transfected with CALCRL+RAMP3) (Homo sapiens, UniProt O60896+Q16602)", "T1 construct": "host or cells: 1321N1 cells", "T1 sequence (Q16602 23-461)": "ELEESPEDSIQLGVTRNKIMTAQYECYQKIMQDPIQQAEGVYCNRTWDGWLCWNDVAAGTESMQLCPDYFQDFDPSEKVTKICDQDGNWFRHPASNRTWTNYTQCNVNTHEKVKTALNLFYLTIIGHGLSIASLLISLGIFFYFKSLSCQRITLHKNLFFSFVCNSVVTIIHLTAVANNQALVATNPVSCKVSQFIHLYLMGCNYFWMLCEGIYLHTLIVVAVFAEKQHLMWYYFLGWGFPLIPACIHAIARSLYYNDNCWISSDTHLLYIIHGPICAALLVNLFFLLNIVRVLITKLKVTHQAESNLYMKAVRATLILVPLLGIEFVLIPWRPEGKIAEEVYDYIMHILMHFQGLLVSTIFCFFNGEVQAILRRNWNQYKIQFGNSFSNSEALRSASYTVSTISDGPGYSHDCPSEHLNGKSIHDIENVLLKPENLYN", "T1 sequence (O60896 24-148)": "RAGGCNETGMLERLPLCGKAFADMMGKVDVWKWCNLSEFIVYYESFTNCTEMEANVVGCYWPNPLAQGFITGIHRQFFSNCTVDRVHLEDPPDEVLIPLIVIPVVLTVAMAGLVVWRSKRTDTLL", "test": "AM2 receptor inhibition, LANCE cAMP agonist-antagonist competition assay", "type": "cell-based", "details": "inhibition of AM induced cAMP activation, read-out: AM2 D2 protocol: pIC50 (converted)", "method": "Compounds were assessed for their ability to inhibit ligand-induced elevations of cAMP, using the Perkin Elmer LANCE cAMP assay using commercially-available cells expressing a specific receptor of interest using the following general procedure:\nCompounds were prepared in dimethyl sulfoxide (DMSO—99.9% pure) (Sigma Aldrich, Cat #: D4540) added to powder stocks to produce a 20 mM solution (100% DMSO) that was sonicated at 37° C. for 10 minutes to fully dissolve the compounds. The 20 mM stocks were diluted further in DMSO to produce a 2 mM solution that was sonicated at 37° C. for 10 minutes. 2 mM stocks were dissolved in assay/stimulation buffer to produce a 400 μM solution that was sonicated at 37° C. for 10 minutes for all cAMP assays. All stocks were stored at −20° C. Then serial dilution (Dilution factor: 10) was performed to achieve the desire experimental concentrations.\nCompetition assays were performed according to the manufactures instructions using LANCE® TR-FRET cAMP assay kit (Perkin Elmer, Cat #: AD0264). Serial dilutions (3 μl/well) of the molecules were plated in a 384-well OptiPlate (Perkin Elmer, Cat #: 6007299) in duplicates. Appropriate controls (100% stimulation: Forskolin and 0% stimulation: Vehicle control) (6 μl/well) were included in each plate for data normalization. Following the compound addition, 6 μl of G-protein coupled receptor overexpressing cells/Alexa Fluor antibody solution (1:100 dilution) was added in each well at a desired density of 2500cells/well. The overexpressing cell lines were purchased from DiscoveRx, Birmingham, UK. After spinning the plate at 1000 rpm for 1 minute and vortexing briefly, the cells were pre-incubated with the compounds for 30 minutes at room temperature (covered). Then 3 μl of the equivalent peptide ligand (EC50 dose) was added to all the wells except vehicle and forskolin controls. The plate were then spun down at 1000 rpm for 1 minute and once finished they were vortexed briefly and covered. Cells were stimulated in the presence of the ligands for 15 minutes at room temperature. After stimulation 12 μl of detection mix (Europium-Chelate streptavidin/biotinylated cAMP tracer solution) was added to all wells and incubated for 60 minutes at room temperature. The plate was then read on the Enspire multimode Plate reader (Perkin Elmer), at; 320/340 nm excitation and 615/665 nm emission was recorded.\nAssay/Stimulation Buffer (30 mL)—pH 7.4 • 28 mL Hank's Balanced salt solution (+MgCl2, +CaCl2)—(Thermo Fisher Cat #:14170112) • 150 μl HEPES (1M)—(Thermo Fisher Cat #:15630080) • 400 μl Stabilizer (DTPA) Purified BSA (7.5%)—(Perkin Elmer, Cat #: CR84-100)\nThe ability of a compound to inhibit the AM induced cAMP activation in AM2 receptor-expressing cells (1321N1 cells transfected with CALCRL+RAMP3, sourced from DiscoverX catalogue number 95-0169C6) was assessed using the protocol above.", "units": {"IC50": "nM"}}
{"smiles": "CNCc1ccccc1CN(CC(=O)Nc1ccc2c(c1)C[C@@]1(C2)C(=O)Nc2ncccc21)C(=O)C1(C)CCN(C(=O)CC2CC2)CC1", "note": "[Example 27, (R)-1-(2-Cyclopropylacetyl)-4-methyl-N-(2-((methylamino)methyl)benzyl)-N-(2-oxo-2-((2′-oxo-1,1′,2′,3-tetrahydrospiro[indene-2,3′-pyrrolo[2,3-b]pyridin]-5-yl)amino)ethyl)piperidine-4-carboxamide]", "IC50": 95.5}
{"smiles": "CNCc1ccccc1CN(CC(=O)Nc1ccc2c(c1)C[C@@]1(C2)C(=O)Nc2ncccc21)C(=O)C1(C)CCN(C(=O)CN)CC1", "note": "[Example 28, (R)-1-(2-Aminoacetyl)-4-methyl-N-(2-((methylamino)methyl)benzyl)-N-(2-oxo-2-((2′-oxo-1,1′,2′,3-tetrahydrospiro[indene-2,3′-pyrrolo[2,3-b]pyridin]-5-yl)amino)ethyl)piperidine-4-carboxamide]", "IC50": 3.55}
{"smiles": "CNCc1ccccc1CN(CC(=O)Nc1ccc2c(c1)C[C@@]1(C2)C(=O)Nc2ncccc21)C(=O)C1(C)CCN(C(=O)c2ccc(N)cn2)CC1", "note": "[Example 29, (R)-1-(5-Aminopicolinoyl)-4-methyl-N-(2-((methylamino)methyl)benzyl)-N-(2-oxo-2-((2′-oxo-1,1′,2′,3-tetrahydrospiro[indene-2,3′-pyrrolo[2,3-b]pyridin]-5-yl)amino)ethyl)piperidine-4-carboxamide]", "IC50": 17.8}
{"smiles": "CNCc1ccccc1CN(CC(=O)Nc1ccc2c(c1)CC1(C2)C(=O)Nc2ncccc21)C(=O)C1(C)CCN(C(=O)CN2CCNCC2)CC1", "note": "(stereo not drawn) [Example 30, 4-Methyl-N-(2-((methylamino)methyl)benzyl)-N-(2-oxo-2-((2′-oxo-1,1′,2′,3-tetrahydrospiro[indene-2,3′-pyrrolo[2,3-b]pyridin]-5-yl)amino)ethyl)-1-(2-(piperazin-1-yl)acetyl)piperidine-4-carboxamide]", "IC50": 0.589}
{"smiles": "CNCc1ccccc1CN(CC(=O)Nc1ccc2c(c1)CC1(C2)C(=O)Nc2ncccc21)C(=O)C1(C)CCN(C(=O)CCN(C)C)CC1", "note": "(stereo not drawn) [Example 31]", "IC50": 1.15}
{"smiles": "CNCc1ccccc1CN(CC(=O)Nc1ccc2c(c1)C[C@@]1(C2)C(=O)Nc2ncccc21)C(=O)C1(C)CCN(C(=O)CN2CCN(C(C)=O)CC2)CC1", "note": "[Example 32, (R)-1-(2-(4-Acetylpiperazin-1-yl)acetyl)-4-methyl-N-(2-((methylamino)methyl)benzyl)-N-(2-oxo-2-((2′-oxo-1,1′,2′,3-tetrahydrospiro[indene-2,3′-pyrrolo[2,3-b]pyridin]-5-yl)amino)ethyl)piperidine-4-carboxamide]", "IC50": 2.34}
{"smiles": "CNCc1ccccc1CN(CC(=O)Nc1ccc2c(c1)C[C@@]1(C2)C(=O)Nc2ncccc21)C(=O)C1(C)CCN(C(=O)c2cccc(C(=O)O)c2)CC1", "note": "[Example 33, (R)-3-(4-Methyl-4-((2-((methylamino)methyl)benzyl)(2-oxo-2-((2′-oxo-1,1′,2′,3-tetrahydrospiro[indene-2,3′-pyrrolo[2,3-b]pyridin]-5-yl)amino)ethyl)carbamoyl)piperidine-1-carbonyl)benzoic Acid]", "IC50": 15.1}
{"smiles": "CNCc1ccccc1CN(CC(=O)Nc1ccc2c(c1)C[C@@]1(C2)C(=O)Nc2ncccc21)C(=O)C1(C)CCN(C(=O)c2ccccc2C(=O)O)CC1", "note": "[Example 34, (R)-2-(4-Methyl-4-((2-((methylamino)methyl)benzyl)(2-oxo-2-((2′-oxo-1,1′,2′,3-tetrahydrospiro[indene-2,3′-pyrrolo[2,3-b]pyridin]-5-yl)amino)ethyl)carbamoyl)piperidine-1-carbonyl)benzoic Acid]", "IC50": 70.8}
{"smiles": "CNCc1ccccc1CN(CC(=O)Nc1ccc2c(c1)C[C@@]1(C2)C(=O)Nc2ncccc21)C(=O)C1(C)CCN(C(=O)c2ccc(C(=O)O)cc2)CC1", "note": "[Example 35, (R)-4-(4-Methyl-4-((2-((methylamino)methyl)benzyl)(2-oxo-2-((2′-oxo-1,1′,2′,3-tetrahydrospiro[indene-2,3′-pyrrolo[2,3-b]pyridin]-5-yl)amino)ethyl)carbamoyl)piperidine-1-carbonyl)benzoic Acid]", "IC50": 3.8}
{"smiles": "CNCc1ccccc1CN(CC(=O)Nc1ccc2c(c1)C[C@@]1(C2)C(=O)Nc2ncccc21)C(=O)C1(C)CCN(C)CC1", "note": "[Example 36, (R)-1,4-Dimethyl-N-(2-((methylamino)methyl)benzyl)-N-(2-oxo-2-((2′-oxo-1,1′,2′,3-tetrahydrospiro[indene-2,3′-pyrrolo[2,3-b]pyridin]-5-yl)amino)ethyl)piperidine-4-carboxamide]", "IC50": 1.82}
{"smiles": "CNCc1ccccc1CN(CC(=O)Nc1ccc2c(c1)C[C@@]1(C2)C(=O)Nc2ncccc21)C(=O)C1(C)CCN(CC(N)=O)CC1", "note": "[Example 37, (R)-1-(2-Amino-2-oxoethyl)-4-methyl-N-(2-((methylamino)methyl)benzyl)-N-(2-oxo-2-((2′-oxo-1,1′,2′,3-tetrahydrospiro[indene-2,3′-pyrrolo[2,3-b]pyridin]-5-yl)amino)ethyl)piperidine-4-carboxamide]", "IC50": 35.5}
{"smiles": "CNCc1ccccc1CN(CC(=O)Nc1ccc2c(c1)CC1(C2)C(=O)Nc2ncccc21)C(=O)C1(C)CCN(CC(F)(F)F)CC1", "note": "(stereo not drawn) [Example 38, 4-Methyl-N-(2-((methylamino)methyl)benzyl)-N-(2-oxo-2-((2′-oxo-1,1′,2′,3-tetrahydrospiro[indene-2,3′-pyrrolo[2,3-b]pyridin]-5-yl)amino)ethyl)-1-(2,2,2-trifluoroethyl)piperidine-4-carboxamide]", "IC50": 10.5}
{"smiles": "CNCc1ccccc1CN(CC(=O)Nc1ccc2c(c1)C[C@@]1(C2)C(=O)Nc2ncccc21)C(=O)C1(C)CCN(CC(F)(F)F)CC1", "note": "[Example 39, (R)-4-Methyl-N-(2-((methylamino)methyl)benzyl)-N-(2-oxo-2-((2′-oxo-1,1′,2′,3-tetrahydrospiro[indene-2,3′-pyrrolo[2,3-b]pyridin]-5-yl)amino)ethyl)-1-(2,2,2-trifluoroethyl)piperidine-4-carboxamide]", "IC50": 19.5}
{"smiles": "CNCc1ccccc1CN(CC(=O)Nc1ccc2c(c1)C[C@@]1(C2)C(=O)Nc2ncccc21)C(=O)C1(C)CCN(Cc2ccccc2)CC1", "note": "[Example 40, (R)-1-Benzyl-4-methyl-N-(2-((methylamino)methyl)benzyl)-N-(2-oxo-2-((2′-oxo-1,1′,2′,3-tetrahydrospiro[indene-2,3′-pyrrolo[2,3-b]pyridin]-5-yl)amino)ethyl)piperidine-4-carboxamide]", "IC50": 6.31}
{"smiles": "CNCc1ccccc1CN(CC(=O)Nc1ccc2c(c1)C[C@@]1(C2)C(=O)Nc2ncccc21)C(=O)C1(C)CCN(CCOC)CC1", "note": "[Example 41, (R)-1-(2-Methoxyethyl)-4-methyl-N-(2-((methylamino)methyl)benzyl)-N-(2-oxo-2-((2′-oxo-1,1′,2′,3-tetrahydrospiro[indene-2,3′-pyrrolo[2,3-b]pyridin]-5-yl)amino)ethyl)piperidine-4-carboxamide]", "IC50": 1.1}
{"smiles": "CNCc1ccccc1CN(CC(=O)Nc1ccc2c(c1)C[C@@]1(C2)C(=O)Nc2ncccc21)C(=O)C1(C)CCN(CCO)CC1", "note": "[Example 42, (R)-1-(2-Hydroxyethyl)-4-methyl-N-(2-((methylamino)methyl)benzyl)-N-(2-oxo-2-((2′-oxo-1,1′,2′,3-tetrahydrospiro[indene-2,3′-pyrrolo[2,3-b]pyridin]-5-yl)amino)ethyl)piperidine-4-carboxamide]", "IC50": 6.46}
{"smiles": "CNCc1ccccc1CN(CC(=O)Nc1ccc2c(c1)C[C@@]1(C2)C(=O)Nc2ncccc21)C(=O)C1(C)CCN(CC(=O)O)CC1", "note": "[Example 43, (R)-2-(4-Methyl-4-((2-((methylamino)methyl)benzyl)(2-oxo-2-((2′-oxo-1,1′,2′,3-tetrahydrospiro[indene-2,3′-pyrrolo[2,3-b]pyridin]-5-yl)amino)ethyl)carbamoyl)piperidin-1-yl)acetic Acid]", "IC50": 135}
{"smiles": "CNCc1ccccc1CN(CC(=O)Nc1ccc2c(c1)C[C@@]1(C2)C(=O)Nc2ncccc21)C(=O)C1(C)CCN(CC(=O)N2CCNCC2)CC1", "note": "[Example 44, (R)-4-Methyl-N-(2-((methylamino)methyl)benzyl)-N-(2-oxo-2-((2′-oxo-1,1′,2′,3-tetrahydrospiro[indene-2,3′-pyrrolo[2,3-b]pyridin]-5-yl)amino)ethyl)-1-(2-oxo-2-(piperazin-1-yl)ethyl)piperidine-4-carboxamide]", "IC50": 10.7}
